For test [1], the target named is Recombinant human PKC-delta (His-tagged 345-676) (Homo sapiens (Human), UniProt Q05655). As to the kind of experiment: PKC-delta inhibition assay (HTRF KinEASE kit), PKC-theta/PKC-delta selectivity. It counts as biochemical. The settings on record: ratio; for PKC-theta/PKC-delta selectivity: PKC-theta over PKC-delta, HTRF assays; for PKC-theta/PKC-delta selectivity (binned): binned A to G. The gist of the method:
(§1)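 Ten semi-log compound doses were fitted by 4-parameter logistic to HTRF acceptor/donor ratios for IC50. Reactions at 25° C used 6.5 μM ATP and 525 nM STK substrate for 30 min (PKC-theta) or 5.7 μM ATP and 243 nM substrate for 20 min (PKC-delta), after 30 min on-ice enzyme–compound preincubation at 10 ng/ml enzyme.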
A general note: In TR-FRET formats the signal depends on donor and acceptor labels being close together.

Test [2] deals with IL-2 secretion by human effector memory T cells (TEM). As to the kind of experiment: Effector memory T cells IL-2 release assay. The test is classed as cell-based. The settings on record: T-cell, 24 h. The gist of the method:
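IC50 values come from a 4-parameter fit of HTRF-measured IL-2 against 10 semi-log doses, relative to maximal IL-2 in each experiment. Donor-derived CD4+ TEM cells were bead-stimulated (anti-CD3/CD28) with compound for 24 h at 37° C; cytotoxicity was excluded by viability dye staining.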

Test [3] has as its target Recombinant human PKC-theta (His-tagged 362-706) (Homo sapiens (Human), UniProt Q04759). Nature of the test: PKC-theta inhibition assay (HTRF KinEASE kit). It counts as biochemical. The settings on record: ATP 6.5 μM. The gist of the method:
as §1

Setting [4] is: human CD4+ TEM cells, CD3/CD28 bead stimulation, binned A to G, read-out: PKC-theta IL2 pIC50 (binned) (converted).
[5] abbreviates: human CD4+ TEM cells, CD3/CD28 bead stimulation, read-out: PKC-theta IL2 pIC50 (converted).
[6] abbreviates: binned A to H, read-out: PKC-theta HTRF pIC50 (binned) (converted).
Setting [7] is: read-out: PKC-theta HTRF pIC50 (converted).

Counter-ions that a name gives are not always drawn. Like-named read-outs stand apart in the source and are kept apart here. Where only a bound is given, the exact number is not on record here.

Chain of Recombinant human PKC-theta (His-tagged 362-706) (Q04759 362-706): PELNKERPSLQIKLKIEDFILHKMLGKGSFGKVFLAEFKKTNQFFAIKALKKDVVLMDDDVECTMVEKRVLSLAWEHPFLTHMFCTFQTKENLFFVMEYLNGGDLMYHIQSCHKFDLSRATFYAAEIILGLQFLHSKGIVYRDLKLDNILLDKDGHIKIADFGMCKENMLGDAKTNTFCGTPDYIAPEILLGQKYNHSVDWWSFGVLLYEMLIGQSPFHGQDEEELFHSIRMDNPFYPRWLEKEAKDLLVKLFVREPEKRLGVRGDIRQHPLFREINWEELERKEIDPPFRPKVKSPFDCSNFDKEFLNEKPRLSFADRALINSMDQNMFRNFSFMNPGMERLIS
Chain of Recombinant human PKC-delta (His-tagged 345-676) (Q05655 345-676): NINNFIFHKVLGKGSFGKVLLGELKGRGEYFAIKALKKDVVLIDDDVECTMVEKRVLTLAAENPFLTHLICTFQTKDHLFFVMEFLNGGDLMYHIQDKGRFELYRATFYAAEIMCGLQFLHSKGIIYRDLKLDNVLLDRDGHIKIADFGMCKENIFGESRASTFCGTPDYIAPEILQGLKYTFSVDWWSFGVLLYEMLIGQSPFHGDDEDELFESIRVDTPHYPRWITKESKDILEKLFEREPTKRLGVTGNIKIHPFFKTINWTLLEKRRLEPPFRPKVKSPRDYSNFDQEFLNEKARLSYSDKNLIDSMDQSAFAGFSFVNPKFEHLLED

For the compound `CC1(O)C(=O)Nc2nccc(-c3nn([C@@H]4CCNC[C@@H]4F)c4ccccc34)c21` (stereo partly drawn) [Example 34], in test [1], the PKC-theta/PKC-delta selectivity turned out to be 12. Also, the “PKC-theta/PKC-delta selectivity (binned)” value in test [1] was “D (D means a ratio of between 10 and 20)”. Also, the IC50 was 0.0316 to 0.1 µM in test [2] (setting [4]), 0.0398 µM in test [2] (setting [5]) and 0.001 to 0.00316 µM in test [3] (setting [6]). The “PKC-theta HTRF pIC50” value in test [3] is 8.8.

`C[C@@]1(O)C(=O)Nc2nccc(-c3nn(C4(CC#N)CCC4)c4cc(F)ccc34)c21` (single isomer, unassigned) [Example 59]: in test [1], the PKC-theta/PKC-delta selectivity was 11. For the same compound, in test [1], the “PKC-theta/PKC-delta selectivity (binned)” value is “D (D means a ratio of between 10 and 20)”. For the same compound, the IC50 in test [2] (setting [4]) was 0.01 to 0.0316 µM; in test [2] (setting [5]) it was 0.02 µM; in test [3] (setting [6]), ≤ 0.001 µM; in test [3] (setting [7]), 0.000631 µM.

On to `CC[C@@]1(OC)C(=O)Nc2nccc(-c3nn(CC4(F)CCNCC4)c4ccccc34)c21` (single isomer, unassigned) [Example 88], for which the PKC-theta/PKC-delta selectivity in test [1] was 14. In addition, in test [1], the “PKC-theta/PKC-delta selectivity (binned)” value is “D (D means a ratio of between 10 and 20)”. The IC50 was 0.1 to 0.316 µM in test [2] (setting [4]), 0.2 µM in test [2] (setting [5]), 0.00316 to 0.01 µM in test [3] (setting [6]) and 0.00398 µM in test [3] (setting [7]).

With `CC1C(=O)Nc2nccc(-c3ccn(C4CCNCC4)c3)c21` (stereo not drawn) [Example 5], the PKC-theta/PKC-delta selectivity in test [1] is listed as 1. Moreover, the “PKC-theta/PKC-delta selectivity (binned)” value in test [1] is “F (F means a ratio of between 1 and 5)”. Further, the IC50 in test [2] (setting [4]) is 0.1 to 0.316 µM; in test [2] (setting [5]), 0.126 µM; in test [3] (setting [6]), 0.0316 to 0.1 µM. In test [3], the “PKC-theta HTRF pIC50” value stood at 7.1.

`O=C1Nc2nccc(-c3nn(C4(CO)CCNC4)c4cc(F)ccc34)c2C12CCCC2` (stereo not drawn) [Example 55, 4-[6-fluoro-1-[3-(hydroxymethyl)pyrrolidin-3-yl]indazol-3-yl]spiro[1H-pyrrolo[2,3-b]pyridine-3,1′-cyclopentane]-2-one dihydrochloride]: the PKC-theta/PKC-delta selectivity in test [1] is on record as 4. Moreover, the “PKC-theta/PKC-delta selectivity (binned)” value in test [1] was “F (F means a ratio of between 1 and 5)”. In addition, the IC50 in test [2] (Homo sapiens, read-out: PKC-theta IL2 pIC50 (binned) (converted)) is 0.1 to 0.316 µM; in test [2] (Homo sapiens, read-out: PKC-theta IL2 pIC50 (converted)), 0.158 µM; in test [3] (setting [6]), 0.00316 to 0.01 µM. For the same compound, in test [3], the “PKC-theta HTRF pIC50” value was 8.2.

As for `CC[C@@]1(O)C(=O)Nc2nccc(-c3nn(C4(CC#N)CCC4)c4ccccc34)c21` (single isomer, unassigned) [Example 68], the PKC-theta/PKC-delta selectivity in test [1] was determined as 12. Besides, in test [1], the “PKC-theta/PKC-delta selectivity (binned)” value is “D (D means a ratio of between 10 and 20)”. The IC50 in test [2] (setting [4]) was 0.01 to 0.0316 µM; in test [2] (setting [5]), 0.01 µM; in test [3] (setting [6]) it was ≤ 0.001 µM; in test [3] (setting [7]), 0.000251 µM.

As for `CC1(O)C(=O)Nc2nccc(-c3cn([C@@H]4CCNC4)c4ccccc34)c21` (stereo partly drawn) [Example 111], the PKC-theta/PKC-delta selectivity in test [1] is on record as 7. Besides, the “PKC-theta/PKC-delta selectivity (binned)” value in test [1] is “E (E means a ratio of between 5 and 10)”. The results for the IC50 in test [2] (setting [4]), in test [2] (setting [5]) and in test [3] (setting [6]) were 0.316 to 1 µM, 0.398 µM and 0.01 to 0.0316 µM, respectively. Besides, in test [3], the “PKC-theta HTRF pIC50” value was found to be 8.0.

Consider `CC1(C)C(=O)Nc2nccc(-c3nn(CC4(F)CCNCC4)c4ccccc34)c21` [Example 38], for which the PKC-theta/PKC-delta selectivity in test [1] turned out to be 16. For the same compound, the “PKC-theta/PKC-delta selectivity (binned)” value in test [1] was “D (D means a ratio of between 10 and 20)”. The results for the IC50 in test [2] (setting [4]), in test [2] (setting [5]) and in test [3] (setting [6]) were 0.01 to 0.0316 µM, 0.02 µM and 0.001 to 0.00316 µM, respectively. Besides, the “PKC-theta HTRF pIC50” value in test [3] was 8.9.

As for `CC1(O)C(=O)Nc2nccc(-c3ccn(C4CCNCC4)c3)c21` (stereo not drawn) [Example 11], the PKC-theta/PKC-delta selectivity in test [1] was 4. Besides, the “PKC-theta/PKC-delta selectivity (binned)” value in test [1] was “F (F means a ratio of between 1 and 5)”. Besides, the IC50 in test [2] (setting [4]) was > 1 µM; in test [2] (setting [5]), 1.58 µM; in test [3] (setting [6]), 0.0316 to 0.1 µM. For the same compound, the “PKC-theta HTRF pIC50” value in test [3] came to 7.2.

For the compound `CC[C@@]1(O)C(=O)Nc2nccc(-c3nn([C@H]4CCNC[C@H]4F)c4ccccc34)c21` (single isomer, unassigned) [Example 82], the PKC-theta/PKC-delta selectivity in test [1] is 12. In addition, in test [1], the “PKC-theta/PKC-delta selectivity (binned)” value is “D (D means a ratio of between 10 and 20)”. The IC50 is 0.0316 to 0.1 µM in test [2] (setting [4]), 0.0501 µM in test [2] (setting [5]), ≤ 0.001 µM in test [3] (setting [6]) and 0.000794 µM in test [3] (setting [7]).

For the compound `CC1(C)C(=O)Nc2nccc(-c3nn(C[C@H]4COCCN4)c4ccccc34)c21` [Example 86], the PKC-theta/PKC-delta selectivity in test [1] worked out at 26. Also, in test [1], the “PKC-theta/PKC-delta selectivity (binned)” value was “C (C means a ratio of between 20 and 30)”. The IC50 in test [2] (setting [4]) was > 1 µM; in test [2] (setting [5]) it was 1.26 µM; in test [3] (setting [6]) it was 0.01 to 0.0316 µM. Also, in test [3], the “PKC-theta HTRF pIC50” value amounted to 7.5.

`CC[C@]1(O)C(=O)Nc2nccc(-c3nn([C@H]4CCNC[C@H]4F)c4ccccc34)c21` (single isomer, unassigned) [Example 84]: in test [1], the PKC-theta/PKC-delta selectivity came out at 14. In addition, the “PKC-theta/PKC-delta selectivity (binned)” value in test [1] was “D (D means a ratio of between 10 and 20)”. In addition, the IC50 in test [2] (setting [4]) was > 1 µM; in test [2] (setting [5]), 1.26 µM; in test [3] (setting [6]) it was 0.0316 to 0.1 µM; in test [3] (setting [7]), 0.0316 µM.

`CC[C@]1(C)C(=O)Nc2nccc(-c3nn([C@@H]4CCNC[C@@H]4F)c4cc(F)ccc34)c21` (single isomer, unassigned) [Example 101]: the PKC-theta/PKC-delta selectivity in test [1] is listed as 42. Moreover, the “PKC-theta/PKC-delta selectivity (binned)” value in test [1] was “B (B means a ratio of between 30 and 50)”. Besides, the IC50 in test [2] (setting [4]) was 0.316 to 1 µM; in test [2] (setting [5]), 0.631 µM; in test [3] (setting [6]), 0.01 to 0.0316 µM; in test [3] (setting [7]) it was 0.0251 µM.

Turning to `C[C@@]1(O)C(=O)Nc2nccc(-c3nn(C4(CC#N)CCC4)c4ccccc34)c21` (single isomer, unassigned) [Example 40], in test [1], the PKC-theta/PKC-delta selectivity is on record as 17. In addition, the “PKC-theta/PKC-delta selectivity (binned)” value in test [1] was “D (D means a ratio of between 10 and 20)”. The IC50 in test [2] (setting [4]) is 0.01 to 0.0316 µM; in test [2] (setting [5]), 0.0158 µM; in test [3] (setting [6]), ≤ 0.001 µM; in test [3] (setting [7]), 0.0002 µM.

Take `C[C@@]1(O)C(=O)Nc2nccc(-c3nn(C4(CC#N)CCC4)c4c(F)cccc34)c21` (single isomer, unassigned) [Example 58]: the PKC-theta/PKC-delta selectivity in test [1] is on record as 18. Also, the “PKC-theta/PKC-delta selectivity (binned)” value in test [1] was “D (D means a ratio of between 10 and 20)”. In addition, the IC50 in test [2] (setting [4]) was 0.01 to 0.0316 µM; in test [2] (setting [5]) it was 0.01 µM; in test [3] (setting [6]), ≤ 0.001 µM; in test [3] (setting [7]), 0.000501 µM.

`CC1(C)C(=O)Nc2nccc(-c3nn([C@H]4CCCNC4)c4ccccc34)c21` [Example 20]: the PKC-theta/PKC-delta selectivity in test [1] is listed as 13. In addition, in test [1], the “PKC-theta/PKC-delta selectivity (binned)” value was “D (D means a ratio of between 10 and 20)”. The IC50 was 0.1 to 0.316 µM in test [2] (setting [4]), 0.2 µM in test [2] (setting [5]) and 0.01 to 0.0316 µM in test [3] (setting [6]). The “PKC-theta HTRF pIC50” value in test [3] worked out at 7.8.

(Values after US20240239794A1, “PKC-Theta Modulators” (Exscientia AI Limited, priority 2021, published 2024).)
